Patent US12312359B2 (Vitae Pharmaceuticals, LLC, priority 2016, dated 2025)

What was measured:
[1] = target: T1, biotinylated wild-type menin and MLL-AF9 fusion protein (menin/MLL binding) (Homo sapiens, UniProt O00255); assay: Assay 1: menin/MLL binding AlphaLISA assay, wild-type menin; details: Table 30; column head does not say wild-type or mutated menin
T1 construct: made in house; host or cells: menin: E. coli; MLL-AF9-FLAG: HEK293 cells, used as cleared lysate
T1 sequence (O00255 1-610): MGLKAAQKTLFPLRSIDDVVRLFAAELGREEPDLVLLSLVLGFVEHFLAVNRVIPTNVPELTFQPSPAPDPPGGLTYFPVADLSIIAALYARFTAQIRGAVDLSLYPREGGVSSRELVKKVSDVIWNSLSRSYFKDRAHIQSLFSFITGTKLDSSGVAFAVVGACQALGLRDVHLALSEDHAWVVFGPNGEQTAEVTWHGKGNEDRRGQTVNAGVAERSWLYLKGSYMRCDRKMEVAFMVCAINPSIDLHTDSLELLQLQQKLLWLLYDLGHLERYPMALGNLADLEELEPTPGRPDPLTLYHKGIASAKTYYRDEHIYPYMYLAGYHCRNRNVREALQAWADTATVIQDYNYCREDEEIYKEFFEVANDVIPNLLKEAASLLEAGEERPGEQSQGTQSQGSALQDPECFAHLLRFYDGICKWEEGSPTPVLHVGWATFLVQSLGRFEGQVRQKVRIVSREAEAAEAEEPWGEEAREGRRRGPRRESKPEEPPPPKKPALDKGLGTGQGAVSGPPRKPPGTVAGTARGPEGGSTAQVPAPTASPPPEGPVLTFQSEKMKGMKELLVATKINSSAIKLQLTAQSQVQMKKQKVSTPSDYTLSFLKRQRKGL
Outline: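 Compound was preincubated 30 min at room temperature with biotinylated menin (5 nM) and MLL-AF9-FLAG lysate from HEK293 cells, pH 7.4 buffer with 5% DMSO and DTT. Bead-based Alpha signal after 60 min with streptavidin donor and anti-FLAG acceptor beads; four-parameter logistic fit gave IC50.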

[2] = tested on: human acute monocytic leukemia cell line MV-4-11; assay: Assay 2: cell proliferation assay (ATP quantitation, CellTiter-Glo), MV-4-11; type: cell-based; details: MV-4-11 cells
Outline: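 MV-4-11 cells, 1.67×10^4 per well in medium with 10% FBS, were exposed to compound for 72 h at 37° C., 5% CO2; HL-60 cells served as toxicity control. Proliferation read as ATP content by CellTiter-Glo luminescence.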

| SMILES | IC50 [1] [nM] | EC50 ([2]; Homo sapiens, MV4-11, 72 h) [nM] | EC50 ([2]; 72 h) [nM] |
| --- | --- | --- | --- |
| CC(C)N(C)C(=O)c1cc(F)ccc1Oc1cncnc1N1CCC2(CCN(Cc3ccc4[nH]c(=O)[nH]c4c3)C2)C1 (single isomer, unassigned) [Example 183A, 5-fluoro-N-isopropyl-N-methyl-2-((4-(7-((2-oxo-2,3-dihydro-1H-benzo[d]imidazol-5-yl)methyl)-2,7-diazaspiro[4.4]nonan-2-yl)pyrimidin-5-yl)oxy)benzamide] | < 100 | < 100 | – |
| N#Cc1ccc(-c2cc(F)ccc2Oc2cncnc2N2CCC3(CCN(Cc4ccc5[nH]c(=O)[nH]c5c4)C3)C2)c(C2CC2)c1 (single isomer, unassigned) [Example 42B, 2-cyclopropyl-5′-fluoro-2′-((4-(7-((2-oxo-2,3-dihydro-1H-benzo[d]imidazol-5-yl)methyl)-2,7-diazaspiro[4.4]nonan-2-yl)pyrimidin-5-yl)oxy)-[1,1′-biphenyl]-4-carbonitrile] | < 100 | – | < 100 |
| CC(C)c1ccccc1-c1cc(F)ccc1Oc1cncnc1N1CCC2(CCN(C[C@H]3CC[C@H](N)CC3)C2)C1 (stereo partly drawn) [Example 219, (1r,4r)-4-((7-(5-((5-fluoro-2′-isopropyl-[1,1′-biphenyl]-2-yl)oxy)pyrimidin-4-yl)-2,7-diazaspiro[4.4]nonan-2-yl)methyl)cyclo-hexan-1-amine] | < 100 | 100 to 1000 | – |
| Cn1c(-c2cc(F)ccc2Oc2cncnc2N2CCC3(CCN(Cc4ccc5c(c4)[nH]c(=O)n5CCO)C3)C2)c(C2CC2)ccc1=O (single isomer, unassigned) [Example 81B, 5-((7-(5-(2-(3-cyclopropyl-1-methyl-6-oxo-1,6-dihydropyridin-2-yl)-4-fluorophenoxy)pyrimidin-4-yl)-2,7-diazaspiro[4.4]nonan-2-yl)methyl)-1-(2-hydroxyethyl)-1H-benzo[d]imidazol-2(3H)-one] | < 100 | – | < 100 |
| CC(C)N(C)C(=O)c1cc(F)ccc1Oc1cncnc1N1CCC2(CCN(Cc3ccc4c(c3)NC(=O)C4(C)C#N)C2)C1 (stereo not drawn) [Example 125, 2-((4-(7-((3-cyano-3-methyl-2-oxoindolin-6-yl)methyl)-2,7-diazaspiro [4.4]nonan-2-yl)pyrimidin-5-yl)oxy)-5-fluoro-N-isopropyl-N-methylbenzamide] | < 100 | < 100 | – |
| CC(CO)c1ccccc1-c1cc(F)ccc1Oc1cncnc1N1CCC2(CCN(Cc3ccc4[nH]c(=O)[nH]c4c3)C2)C1 (stereo not drawn) [Example 69, 5-((7-(5-((5-fluoro-2′-(1-hydroxypropan-2-yl)-[1,1′-biphenyl]-2-yl)oxy)pyrimidin-4-yl)-2,7-diazaspiro[4.4]nonan-2-yl)methyl)-1H-benzo[d]imidazol-2(3H)-one] | < 100 | < 100 | – |
| CC(C)Oc1ncccc1-c1cc(F)ccc1Oc1cncnc1N1CC2(CN(CC3CCOCC3)C2)C1 [Example 162, 2-(5-(4-fluoro-2-(2-isopropoxypyridin-3-yl)phenoxy)pyrimidin-4-yl)-6-((tetrahydro-2H-pyran-4-yl)methyl)-2,6-diazaspiro[3.3]heptane] | < 100 | 100 to 1000 | – |
| CC(C)N(C)C(=O)c1cc(F)ccc1Oc1cncnc1N1CC2(CN(CC3CCOCC3)C2)C1 [Example 225, 5-fluoro-N-isopropyl-N-methyl-2-((4-(6-((tetrahydro-2H-pyran-4-yl)methyl)-2,6-diazaspiro[3.3]heptan-2-yl)pyrimidin-5-yl)oxy)benzamide] | < 100 | 100 to 1000 | – |
| Fc1ccc(Oc2cncnc2N2CC3(CN(CC4CCOCC4)C3)C2)c(OC2CCCC2)c1 [Example 168, 2-(5-(2-(cyclopentyloxy)-4-fluorophenoxy)pyrimidin-4-yl)-6-((tetrahydro-2H-pyran-4-yl)methyl)-2,6-diazaspiro[3.3]heptane] | < 100 | ≥ 1000 | – |
| CC(C)N(C)C(=O)c1cc(F)ccc1Oc1cncnc1N1CCC2(CCN(Cc3ccc4oc(=O)[nH]c4c3)C2)C1 (stereo not drawn) [Example 174, 5-fluoro-N-isopropyl-N-methyl-2-((4-(7-((2-oxo-2,3-dihydrobenzo[d]oxazol-5-yl)methyl)-2,7-diazaspiro[4.4]nonan-2-yl)pyrimidin-5-yl)oxy)benzamide] | < 100 | < 100 | – |
| N#Cc1ccc(-c2cc(F)ccc2Oc2cncnc2N2CC3(CN(CC4(O)CCOCC4)C3)C2)c(C2CC2)c1 [Example 214, 2-cyclopropyl-5′-fluoro-2′-((4-(6-((4-hydroxytetrahydro-2H-pyran-4-yl)methyl)-2,6-diazaspiro[3.3]heptan-2-yl)pyrimidin-5-yl)oxy)-[1,1′-biphenyl]-4-carbonitrile] | < 100 | 100 to 1000 | – |
| CN(C)C(=O)c1ccc(-c2cc(F)ccc2Oc2cncnc2N2CCC3(CCN(Cc4ccc5[nH]c(=O)[nH]c5c4)C3)C2)c(C2CC2)c1 (stereo not drawn) [Example 45, 2-cyclopropyl-5′-fluoro-N,N-dimethyl-2′-((4-(7-((2-oxo-2,3-dihydro-1H-benzo[d]imidazol-5-yl)methyl)-2,7-diazaspiro[4.4]nonan-2-yl)pyrimidin-5-yl)oxy)-[1,1′-biphenyl]-4-carboxamide] | < 100 | < 100 | – |
| CC(C)N(C)C(=O)c1cc(F)ccc1Oc1cncnc1N1CCC2(CN(C(=O)Cc3ccc(C#N)cc3)C2)C1 [Example 127, 2-((4-(2-(2-(4-cyanophenyl)acetyl)-2,6-diazaspiro[3.4]octan-6-yl)pyrimidin-5-yl)oxy)-5-fluoro-N-isopropyl-N-methylbenzamide] | < 100 | 100 to 1000 | – |
| CC(C)c1ncncc1-c1cc(F)ccc1Oc1cncnc1N1CC2(CC(NC(C)c3ccc(C#N)cc3)C2)C1 (stereo not drawn) [Example 141, 4-(1-((2-(5-(4-fluoro-2-(4-isopropylpyrimidin-5-yl)phenoxy)pyrimidin-4-yl)-2-azaspiro[3.3]heptan-6-yl)amino)ethyl)benzo-nitrile] | < 100 | 100 to 1000 | – |
| CC(C)c1ncncc1-c1cc(F)ccc1Oc1cncnc1N1CCC2(CCN(Cc3ccc4[nH]c(=O)[nH]c4c3)C2)C1 (stereo not drawn) [Example 160, 5-((7-(5-(4-fluoro-2-(4-isopropylpyrimidin-5-yl)phenoxy)pyrimidin-4-yl)-2,7-diazaspiro[4.4]nonan-2-yl)methyl)-1,3-dihydro-2H-benzo[d]imidazol-2-one] | < 100 | < 100 | – |
| CC(C)(C)OC(=O)N[C@H]1CC[C@H](CCN2CC3(C2)CN(c2ncncc2Oc2ccc(F)cc2-c2ccc(C#N)cc2C2CC2)C3)CC1 [Example 189, tert-butyl ((1r,4r)-4-(2-(6-(5-((4′-cyano-2′-cyclopropyl-5-fluoro-[1,1′-biphenyl]-2-yl)oxy)pyrimidin-4-yl)-2,6-diazaspiro[3.3]heptan-2-yl)ethyl)cyclohexyl) carbamate] | < 100 | 100 to 1000 | – |
| CC1(C)C(=O)Nc2cc(CN3CCC4(CCN(c5ncncc5Oc5ccc(F)cc5-c5ccc(C#N)cc5C5CC5)C4)C3)ccc21 (stereo not drawn) [Example 205, 2-cyclopropyl-2′-((4-(7-((3,3-dimethyl-2-oxoindolin-6-yl)methyl)-2,7-diazaspiro[4.4]nonan-2-yl)pyrimidin-5-yl)oxy)-5′-fluoro-[1,1′-biphenyl]-4-carbonitrile] | < 100 | < 100 | – |
| Cc1cc(C#N)ccc1-c1cc(F)ccc1Oc1cncnc1N1CCC2(CCN(Cc3ccc4[nH]c(=O)[nH]c4c3)C2)C1 (stereo not drawn) [Example 226, 5′-fluoro-2-methyl-2′-((4-(7-((2-oxo-2,3-dihydro-1H-benzo[d]imidazol-5-yl)methyl)-2,7-diazaspiro[4.4]nonan-2-yl)pyrimidin-5-yl)oxy)-[1,1′-biphenyl]-4-carbonitrile] | < 100 | – | ≥ 1000 |
| NC(c1cc(F)ccc1Oc1cncnc1N1CCC2(CCN(Cc3ccc4[nH]c(=O)[nH]c4c3)C2)C1)C1CCCC1 (stereo not drawn) [Example 7, 5-((7-(5-(2-(amino(cyclopentyl)methyl)-4-fluorophenoxy)pyrimidin-4-yl)-2,7-diazaspiro[4.4]nonan-2-yl)methyl)-1,3-dihydro-2H-benzo[d]imidazol-2-one] | < 100 | 100 to 1000 | – |
| CCN(C(=O)c1cc(F)ccc1Oc1cncnc1N1CCC2(CCN(Cc3ccc4[nH]c(=O)[nH]c4c3)C2)C1)C(C)C (racemic) [Example 2, N-ethyl-5-fluoro-N-isopropyl-2-((4-(7-((2-oxo-2,3-dihydro-1H-benzo[d]imidazol-5-yl)methyl)-2,7-diazaspiro[4.4]nonan-2-yl)pyrimidin-5-yl)oxy)benzamide] | < 100 | < 100 | – |
| O=c1[nH]c2ccc(CN3CCC4(CCN(c5ncncc5Oc5ccc(F)cc5OCc5ccccc5)C4)C3)cc2[nH]1 (stereo not drawn) [Example 208, 5-((7-(5-(2-(benzyloxy)-4-fluorophenoxy)pyrimidin-4-yl)-2,7-diazaspiro [4.4]nonan-2-yl)methyl)-1,3-dihydro-2H-benzo[d]imidazol-2-one] | < 100 | ≥ 1000 | – |
